Measured values: patent publication US9073884B2, “Anti-inflammatory and quorum sensing inhibition compounds and methods of making and using them” (The Regents of the University of California, priority 2010, dated 2015)

Assays:
vibrio harveyi = vibrio harveyi assay (quorum sensing inhibition); assay type: cell-based
[1] = test system: Escherichia coli JB525 (E. coli MT102 harboring the gfp plasmid pJBA132); assay: Escherichia coli JB525 assay (quorum sensing inhibition); assay type: cell-based

O=C(/C=C/CCl)O[C@@H]1COC(=O)C1 [Honaucin A]
inhibition of AI-1 and AI-2 mediated quorum sensing (vibrio harveyi): good inhibition
inhibition of AI-1 and AI-2 mediated quorum sensing [1]: good inhibition
